Structures are written as SMILES.

The nature of series [1]: Stability of compounds assessed by RP-HPLC. The class given is physicochemical. The procedure:
RP-HPLC was performed using a Gilson 321 pump with a C18 column (Jupiter 300 Å, Phenomenex) with a Widepore C18 guard column (Phenomenex). Samples (1 ml) were injected through a 0.22 μm PVDF filter (Millex, Millipore). HPLC buffer A [0.1% TFA in water] and HPLC buffer B (90% acetonitrile and 0.1% TFA) were used and a gradient was run at 1 ml/min at room temperature as follows: 0-2 min—5% B; 2-17 min—5-100% B; 17-19 min—100% B; 19-22 min—100-5% B. Peaks were detected by absorbance at 220 nm (UV/Vis 151, Gilson) and by fluorescence (excitation and emission wavelengths of 344 and 433 nm; RF-10AXL, Shimadzu). Partition coefficients between PBS and octan-1-ol were determined as previously described.
The syntheses of MitoG, its predicted quinoxaline products upon reaction with methylglyoxal and glyoxal, and their deuterated versions are summarized in FIG. 2. As expected, the spectrum of MitoG was a summation of those of the phenylenediamine, hexyloxyphenylenediamine (HP), and a simple alkylTPP salt.
The expected products of the reaction of MitoG with methylglyoxal (MQE) and glyoxal (QE) were synthesized and have UV/Vis absorption spectra distinct from that of MitoG (FIG. 3B). Both QE and MQE were fluorescent, while MitoG was not (FIG. 3C). The three compounds were resolved by RP-HPLC (FIG. 3D) although the MQE regioisomers (MQE1, MQE2; FIG. 1B) were not distinguished. Both MQE and QE were stable after one week at 37° C. as assessed by RP-HPLC (data not shown). It was concluded that MitoG is sufficiently stable for biological experiments involving trapping of glyoxal and methylglyoxal within mitochondria in cells and in vivo, and the reaction products MQE and QE were both robustly stable for chemical isolation and subsequent LC-MS/MS analyses.

A short description of series [2]: Reaction with reactive aldehydes followed by RP-HPLC. The settings on record: RP-HPLC analysis, data not shown. From the text:
MitoG reacted with methylglyoxal and glyoxal to form products with identical absorption, fluorescence and RP-HPLC properties (FIGS. 3E, F, G & H) to those of independently synthesized and characterized MQE or QE (FIGS. 3B, C & D). […] Thus the reaction of MitoG with these aldehydes is not diagnostically useful, in contrast to that with 1,2-dicarbonyls, which generates stable, dominant products.

Turning to `Nc1ccc(OCCCCCC[P+](c2ccccc2)(c2ccccc2)c2ccccc2)cc1N` [MitoG, (6-(3,4-Diaminophenoxy)hexyl)triphenylphosphonium chloride], in series [1] (37° C., 4 h), the “decomposition of dilute solutions, loss by 4 h” value is reported as “minimal loss”. Moreover, the “decomposition of dilute solutions, loss by 24 h” value in series [1] (37° C., 24 h) is “significant loss”. Further, in series [1] (dilute solutions, 37° C.), the “duration of biological experiments for which sufficiently stable” value was approximately 4 h. For the same molecule, in series [1] (storage at −20° C., RP-HPLC), the “stability of stock solutions” value is reported as “stable”. Further, the “reaction with HNE or acrolein” value in series [2] was “did react, a number of products were formed some of which were unstable”.

These data come from US9963474B2, “Mitochondria-targeted dicarbonyl sequestering compounds” (MEDICAL RESEARCH COUNCIL, priority 2013, dated 2018).
